Consider 14 compounds from ChEMBL document CHEMBL3045082, “Novel quinazolinone derivatives: synthesis and antimicrobial activity” (2013).

Values after ≈ are worked out from the molar mass of the structure shown. Active and inactive are the calls of the source. No cut-off for these calls is given here.

For assay [1], the system named is Fusarium oxysporum. The experiment in a line: Antimicrobial activity against Fusarium oxysporum assessed as growth inhibition after 24 to 48 hr by two-fold serial dilution method. In kind it is functional.
Assay [2] concerns Pseudomonas savastanoi pv. phaseolicola. The experiment in a line: Antimicrobial activity against Pseudomonas syringae pv. phaseolicola GSPB 2828 assessed as growth inhibition after 24 to 48 hr by two-fold serial dilution method. In kind it is functional.
Assay [3] concerns Fusarium oxysporum. The experiment in a line: Antimicrobial activity against Fusarium oxysporum assessed as diameter of growth inhibition zone at 1 mg/ml […] by agar diffusion method. The class given is functional. The conditions noted are these: read-out: DIZ. (Agar diffusion results depend on both activity and mobility in agar.)
In assay [4] the test system is Pseudomonas fluorescens. Put plainly: Antimicrobial activity against Pseudomonas fluorescens S 97 assessed as diameter of growth inhibition zone at 1 mg/ml after 24 hr by agar diffusion method. The class given is functional. The following applies: S 97, 24 h, read-out: DIZ.
Assay [5] relates to Pseudomonas savastanoi pv. phaseolicola. The experiment in a line: Antimicrobial activity against Pseudomonas syringae pv. phaseolicola GSPB 2828 assessed as diameter of growth inhibition zone at 1 mg/ml after 24 hr by agar diffusion method. In kind it is functional. The following applies: GSPB 2828, 24 h, read-out: DIZ.
The test system of assay [6] is Streptococcus pyogenes. Put plainly: Antimicrobial activity against Streptococcus pyogenes ATCC 19615 assessed as diameter of growth inhibition zone at 1 mg/ml after 24 hr by agar diffusion method. In kind it is functional. The following applies: ATCC 19615, 24 h, read-out: DIZ.
Assay [7] has as its system Staphylococcus aureus. Put plainly: Antimicrobial activity against Staphylococcus aureus ATCC 25923 assessed as diameter of growth inhibition zone at 1 mg/ml after 24 hr by agar diffusion method. The following applies: ATCC 25923, 24 h, read-out: DIZ. The class given is functional.
In assay [8] the test system is Aspergillus fumigatus. The experiment in a line: Antimicrobial activity against Aspergillus fumigatus assessed as diameter of growth inhibition zone at 1 mg/ml by agar diffusion method. The following applies: read-out: DIZ.
Assay [9] has as its system Aspergillus fumigatus. Put plainly: Antimicrobial activity against Aspergillus fumigatus assessed as growth inhibition after 24 to 48 hr by two-fold serial dilution method. The class given is functional.
Assay [10] concerns Pseudomonas fluorescens. Put plainly: Antimicrobial activity against Pseudomonas fluorescens S 97 assessed as growth inhibition after 24 to 48 hr by two-fold serial dilution method. In kind it is functional.
The subject of assay [11] is Staphylococcus aureus. Put plainly: Antimicrobial activity against Staphylococcus aureus ATCC 25923 assessed as growth inhibition after 24 to 48 hr by two-fold serial dilution method. In kind it is functional.
Assay [12] relates to Streptococcus pyogenes. The experiment in a line: Antimicrobial activity against Streptococcus pyogenes ATCC 19615 assessed as growth inhibition after 24 to 48 hr by two-fold serial dilution method relative to chloramphenicol. The class given is functional.
Assay [13] has as its system Streptococcus pyogenes. Put plainly: Antimicrobial activity against Streptococcus pyogenes ATCC 19615 assessed as growth inhibition after 24 to 48 hr by two-fold serial dilution method. The class given is functional.
Assay [14] deals with Staphylococcus aureus. The experiment in a line: Antimicrobial activity against Staphylococcus aureus ATCC 25923 assessed as growth inhibition after 24 to 48 hr by two-fold serial dilution method relative to chloramphenicol. In kind it is functional.

The term MIC denotes the lowest concentration found to suppress growth. As to `Cc1ccc(S(=O)(=O)Oc2ccc(-c3nc4ccccc4c4nc(=O)[nH]n34)cc2)cc1`, the MIC came to 50 µg/mL (≈ 116 µM) with Fusarium oxysporum [1] and 6.25 µg/mL (≈ 14.5 µM) in assay [2]. Also, the zone of inhibition at 1000 µg/mL with Fusarium oxysporum [3] is 19 mm; with Pseudomonas fluorescens [4] it was 15 mm; in assay [5], 38 mm; with Streptococcus pyogenes [6], 15 mm; with Staphylococcus aureus [7], 15 mm; in the assay on Aspergillus fumigatus [8] it was 15 mm.
For `Cc1ccc(S(=O)(=O)Oc2ccc(-c3nc4ccccc4c(=O)n3-n3c(C)nc4ccccc4c3=O)cc2)cc1`, the MIC with Aspergillus fumigatus [9] came out at 6.25 µg/mL (≈ 11.4 µM); with Pseudomonas fluorescens [10] it was 50 µg/mL (≈ 90.8 µM); with Staphylococcus aureus [11] it was 50 µg/mL (≈ 90.8 µM). The zone of inhibition at 1000 µg/mL in the assay on Fusarium oxysporum [3] stood at 15 mm; in the assay with Pseudomonas fluorescens [4], 19 mm; in [5] it was 14 mm; in the assay with Streptococcus pyogenes [6], 15 mm; in the assay with Staphylococcus aureus [7] it was 19 mm; in the assay with Aspergillus fumigatus [8], 38 mm.
For the compound `Cc1ccc(C2CC(c3ccc(-n4c(-c5ccc(OS(=O)(=O)c6ccc(C)cc6)cc5)nc5ccccc5c4=O)cc3)=NN2)cc1` (centres undefined), the “growth inhibition (GI)” value in the assay with Streptococcus pyogenes [12] came out at 50%. Moreover, the minimum inhibitory concentration (MIC) is 12.5 µg/mL (≈ 19.9 µM) in the assay with Aspergillus fumigatus [9], 50 µg/mL (≈ 79.8 µM) in assay [2], 6.25 µg/mL (≈ 9.97 µM) in the assay on Streptococcus pyogenes [13] and 3.12 µg/mL (≈ 4.99 µM) in the assay on Staphylococcus aureus [11]. Moreover, in the assay with Pseudomonas fluorescens [10], the MIC entry is “inactive”. For the same compound, the zone of inhibition at 1000 µg/mL with Fusarium oxysporum [3] was 14 mm; in assay [5] it was 19 mm; in the assay on Streptococcus pyogenes [6] it was 38 mm; in the assay with Staphylococcus aureus [7], 43 mm; with Aspergillus fumigatus [8], 31 mm.
`O=C(N[C@H](CO)[C@H](O)c1ccc([N+](=O)[O-])cc1)C(Cl)Cl` [CHLORAMPHENICOL]: the MIC in the assay with Pseudomonas fluorescens [10] turned out to be 6.25 µg/mL (≈ 19.3 µM); in assay [2], 6.25 µg/mL (≈ 19.3 µM); in the assay on Streptococcus pyogenes [13], 3.12 µg/mL (≈ 9.67 µM); with Staphylococcus aureus [11], 3.12 µg/mL (≈ 9.67 µM). The zone of inhibition at 1000 µg/mL in the assay with Pseudomonas fluorescens [4] is 38 mm; in assay [5], 37 mm; in the assay with Streptococcus pyogenes [6], 44 mm; with Staphylococcus aureus [7], 42 mm.
Turning to `Cc1ccc(S(=O)(=O)Oc2ccc(-c3nc4ccccc4c(=O)n3-c3ccc(N)cc3)cc2)cc1`, the MIC with Aspergillus fumigatus [9] is 25 µg/mL (≈ 51.7 µM); in the assay with Fusarium oxysporum [1], 6.25 µg/mL (≈ 12.9 µM); with Pseudomonas fluorescens [10] it was 50 µg/mL (≈ 103 µM). Moreover, the zone of inhibition at 1000 µg/mL came to 37 mm in the assay on Fusarium oxysporum [3]; 18 mm with Pseudomonas fluorescens [4]; 15 mm in assay [5]; 15 mm in the assay on Streptococcus pyogenes [6]; 14 mm in the assay on Staphylococcus aureus [7]; 26 mm in the assay with Aspergillus fumigatus [8].
Regarding `CC(=O)OCC1=C(C(=O)O)N2C(=O)[C@@H](NC(=O)Cc3cccs3)[C@H]2SC1` [CEPHALOTHIN], the MIC (with Pseudomonas fluorescens [10]; in assay [2]; in the assay with Streptococcus pyogenes [13]; in the assay with Staphylococcus aureus [11]) was 6.25 µg/mL (≈ 15.8 µM) in each case. Besides, the zone of inhibition at 1000 µg/mL was found to be 37 mm with Pseudomonas fluorescens [4], 38 mm in [5], 37 mm in the assay on Streptococcus pyogenes [6] and 36 mm with Staphylococcus aureus [7].
Regarding `Cc1ccc(S(=O)(=O)Oc2ccc(-c3nc4ccccc4c(=O)n3-c3nccs3)cc2)cc1`, the “growth inhibition (GI)” value in the assay with Staphylococcus aureus [14] and in the assay with Streptococcus pyogenes [12] was 50% throughout. The MIC with Aspergillus fumigatus [9] was 50 µg/mL (≈ 105 µM); in the assay with Streptococcus pyogenes [13], 6.25 µg/mL (≈ 13.1 µM); with Staphylococcus aureus [11] it was 6.25 µg/mL (≈ 13.1 µM). The zone of inhibition at 1000 µg/mL in the assay with Fusarium oxysporum [3] was determined as 15 mm; in the assay with Pseudomonas fluorescens [4], 16 mm; in assay [5], 14 mm; in the assay on Streptococcus pyogenes [6] it was 38 mm; in the assay on Staphylococcus aureus [7], 38 mm; in the assay with Aspergillus fumigatus [8], 19 mm.
With `Cc1ccc(S(=O)(=O)Oc2ccc(-c3nc4ccccc4c4nc5ccccc5n34)cc2)cc1`, the MIC in the assay with Aspergillus fumigatus [9] came out at 50 µg/mL (≈ 107 µM); in the assay with Pseudomonas fluorescens [10], 6.25 µg/mL (≈ 13.4 µM); with Streptococcus pyogenes [13], 25 µg/mL (≈ 53.7 µM); in the assay with Staphylococcus aureus [11], 25 µg/mL (≈ 53.7 µM). For the same compound, the zone of inhibition at 1000 µg/mL worked out at 16 mm in the assay with Fusarium oxysporum [3]; 37 mm in the assay with Pseudomonas fluorescens [4]; 14 mm in assay [5]; 25 mm in the assay with Streptococcus pyogenes [6]; 26 mm with Staphylococcus aureus [7]; 20 mm in the assay on Aspergillus fumigatus [8].
`Cc1ccc(S(=O)(=O)Oc2ccc(C3=Nc4ccccc4C4=NCCN34)cc2)cc1`: the MIC in the assay with Pseudomonas fluorescens [10] came out at 50 µg/mL (≈ 120 µM); in assay [2] it was 25 µg/mL (≈ 59.9 µM); in the assay with Streptococcus pyogenes [13] it was 6.25 µg/mL (≈ 15 µM); in the assay with Staphylococcus aureus [11], 25 µg/mL (≈ 59.9 µM). The zone of inhibition at 1000 µg/mL in the assay with Fusarium oxysporum [3] was determined as 15 mm; with Pseudomonas fluorescens [4], 19 mm; in assay [5] it was 26 mm; in the assay on Streptococcus pyogenes [6] it was 37 mm; in the assay with Staphylococcus aureus [7], 25 mm; in the assay on Aspergillus fumigatus [8] it was 14 mm.
On to `C[C@@H]1C[C@@H]([C@H](O)CC2CC(=O)NC(=O)C2)C(=O)[C@@H](C)C1` [CYCLOHEXIMIDE], for which the MIC in the assay on Aspergillus fumigatus [9] and in the assay with Fusarium oxysporum [1] was 3.12 µg/mL (≈ 11.1 µM) in each case. Moreover, the zone of inhibition at 1000 µg/mL in the assay on Fusarium oxysporum [3] was 43 mm; in the assay on Aspergillus fumigatus [8] it was 42 mm.
In the case of `COc1ccc(C2CC(c3ccc(-n4c(-c5ccc(OS(=O)(=O)c6ccc(C)cc6)cc5)nc5ccccc5c4=O)cc3)=NN2)cc1` (centres undefined), the “growth inhibition (GI)” value in the assay on Streptococcus pyogenes [12] was 50%. Besides, the MIC in the assay on Aspergillus fumigatus [9] was found to be 12.5 µg/mL (≈ 19.4 µM); in assay [2] it was 50 µg/mL (≈ 77.8 µM); with Streptococcus pyogenes [13], 6.25 µg/mL (≈ 9.72 µM); in the assay with Staphylococcus aureus [11], 3.12 µg/mL (≈ 4.86 µM). The MIC entry with Pseudomonas fluorescens [10] was “inactive”. Besides, the zone of inhibition at 1000 µg/mL came out at 14 mm in the assay with Fusarium oxysporum [3]; 19 mm in assay [5]; 38 mm in the assay with Streptococcus pyogenes [6]; 43 mm in the assay on Staphylococcus aureus [7]; 31 mm in the assay on Aspergillus fumigatus [8].
In the case of `Cc1ccc(S(=O)(=O)Oc2ccc(-c3nc4ccccc4c4nc(=S)[nH]n34)cc2)cc1`, the MIC with Fusarium oxysporum [1] is 25 µg/mL (≈ 55.7 µM); in the assay with Pseudomonas fluorescens [10], 50 µg/mL (≈ 111 µM); in the assay with Streptococcus pyogenes [13], 6.25 µg/mL (≈ 13.9 µM); in the assay on Staphylococcus aureus [11], 3.12 µg/mL (≈ 6.97 µM). Moreover, the zone of inhibition at 1000 µg/mL in the assay with Fusarium oxysporum [3] turned out to be 26 mm; with Pseudomonas fluorescens [4], 19 mm; in assay [5], 15 mm; in the assay with Streptococcus pyogenes [6], 37 mm; in the assay on Staphylococcus aureus [7], 44 mm; in the assay on Aspergillus fumigatus [8], 14 mm.
Turning to `Cc1ccc(S(=O)(=O)Oc2ccc(C(=O)Nc3ccccc3-c3nc4ccccc4[nH]3)cc2)cc1`, the MIC entry with Aspergillus fumigatus [9] was “inactive”. In addition, the MIC in assay [2] is 50 µg/mL (≈ 103 µM); in the assay on Streptococcus pyogenes [13], 25 µg/mL (≈ 51.7 µM); with Staphylococcus aureus [11], 25 µg/mL (≈ 51.7 µM). The zone of inhibition at 1000 µg/mL in the assay with Fusarium oxysporum [3] stood at 15 mm; in the assay on Pseudomonas fluorescens [4] it was 14 mm; in assay [5], 19 mm; in the assay on Streptococcus pyogenes [6], 25 mm; in the assay with Staphylococcus aureus [7], 25 mm.
Consider `Cc1ccc(S(=O)(=O)Oc2ccc(-c3nc4ccccc4c(=O)n3-c3ccc(C4=NNC(c5ccccc5)C4)cc3)cc2)cc1` (centres undefined), for which, in the assay on Streptococcus pyogenes [12], the “growth inhibition (GI)” value came out at 50%. Further, the MIC turned out to be 12.5 µg/mL (≈ 20.4 µM) with Aspergillus fumigatus [9], 50 µg/mL (≈ 81.6 µM) in assay [2], 6.25 µg/mL (≈ 10.2 µM) with Streptococcus pyogenes [13] and 3.12 µg/mL (≈ 5.1 µM) in the assay with Staphylococcus aureus [11]. Besides, the MIC result with Pseudomonas fluorescens [10] was “inactive”. The zone of inhibition at 1000 µg/mL was determined as 14 mm in the assay on Fusarium oxysporum [3]; 19 mm in assay [5]; 38 mm in the assay with Streptococcus pyogenes [6]; 43 mm in the assay on Staphylococcus aureus [7]; 31 mm in the assay with Aspergillus fumigatus [8].
